Drawing on paper PMC3502511, “Inhibition of the Prokaryotic Pentameric Ligand-Gated Ion Channel ELIC by Divalent Cations” (PLoS Biology, 2012), this text covers EC50 for one compound.

For test [1], the target named is T1, ELIC D158A (Dickeya chrysanthemi, UniProt P0C7B7, D158A/INS163G).
T1 construct: expressed in transfected cells; host or cells: X. laevis oocytes
The test can be described thus: Two-electrode voltage clamp, ELIC D158A in oocytes. The format is cell-based, Erwinia chrysanthemi. The settings on record: agonist cysteamine. As to the method: (§1) Constructs containing the gene of either the WT or mutant channels preceded by the signal sequence of the chicken α7nAchR were cloned into the pTLN vector for expression in X. laevis oocytes. After linearization of the plasmid DNA by MluI, capped complementary RNA was transcribed with the mMessage mMachine kit (Ambion) and purified with the RNeasy kit (Qiagen). For expression, 1–50 ng of RNA was injected into defolliculated oocytes. Two-electrode voltage clamp measurements were performed 1 d after injection at 20°C (OC-725B, Warner Instrument Corp.). Currents were recorded in bath solutions containing 10 mM HEPES (pH 7), 130 mM NaCl, and the indicated concentrations of cysteamine and divalent cations. In case of solutions containing Zn^2+, cysteamine was replaced by propylamine. The membrane potential in all dose–response measurements was set to −40 mV. As ELIC is permeable to divalent cations, we tested if endogenous calcium-activated chloride channels affected our measurements. To chelate intracellular calcium ions, the oocytes were incubated for 15 to 30 min in bath solutions lacking divalent ions but containing 10 µM BAPTA-AM.
(In general: Two-electrode voltage clamp holds a large cell at a set potential and records current.)

In test [2] the target is T2, ELIC E150Q (Dickeya chrysanthemi, UniProt P0C7B7, E150Q/INS163G).
T2 construct: expressed in transfected cells; host or cells: X. laevis oocytes
The test is described as follows: Two-electrode voltage clamp, ELIC E150Q in oocytes. The format is cell-based, Erwinia chrysanthemi. The settings on record: agonist cysteamine. As to the method:
as §1

Consider `NCCS` [cysteamine], for which the EC50 came out at 1.78 mM in test [1] (Ca^2+ 0 mM); 1.79 mM in test [1] (Ca^2+ 1 mM); 3.33 mM in test [1] (Ca^2+ 5 mM); 5.43 mM in test [1] (Ca^2+ 10 mM); 9.38 mM in test [1] (Ca^2+ 20 mM); 2.92 mM in test [2] (Ca^2+ 0 mM). The EC50 in test [2] (Ca^2+ 1 mM) came out at 5.29 mM; in test [2] (Ca^2+ 5 mM), 14.6 mM; in test [2] (Ca^2+ 10 mM) it was 21.9 mM.

A word on the EC50: it is the midpoint of the concentration-response curve.
